Test results: patent publication US8889874B2, “Imidazolone-chalcone derivatives as potential anticancer agent and process for the preparation thereof” (Council of Scientific and Industrial Research, priority 2010, dated 2014)
Where two headings read alike, the source gives them in different places.

Experiments:
Format in all cases: cell-based, human
[1] = tested on: A498 (renal); experiment: NCI anticancer screen, SRB assay, 48 h; details: Homo sapiens
Summary of the method: (§1)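 Sulforhodamine B protein assay read cell growth after 48 h of continuous compound exposure. Dose-response curves per cell line used at least five 10-fold-diluted concentrations, within a panel of fifty-three human lines from nine tumour types.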

[2] = tested on: A549/ATCC (non-small cell lung); experiment: NCI anticancer screen, SRB assay, 48 h; details: Homo sapiens
Summary of the method: as §1

[3] = tested on: ACHN (renal); experiment: NCI anticancer screen, SRB assay, 48 h; details: Homo sapiens
Summary of the method: as §1

[4] = tested on: BT-549 (breast); experiment: NCI anticancer screen, SRB assay, 48 h; details: Homo sapiens
Summary of the method: as §1

[5] = tested on: COLO 205 (colon); experiment: NCI anticancer screen, SRB assay, 48 h; details: Homo sapiens, COLO 205
Summary of the method: as §1

[6] = tested on: HCC-2998 (colon); experiment: NCI anticancer screen, SRB assay, 48 h; details: Homo sapiens
Summary of the method: as §1

[7] = tested on: HOP-92 (non-small cell lung); experiment: NCI anticancer screen, SRB assay, 48 h; details: Homo sapiens
Summary of the method: as §1

[8] = tested on: HS 578T (breast); experiment: NCI anticancer screen, SRB assay, 48 h; details: Homo sapiens
Summary of the method: as §1

[9] = tested on: HT29 (colon); experiment: NCI anticancer screen, SRB assay, 48 h; details: Homo sapiens
Summary of the method: as §1

[10] = tested on: KM12 (colon); experiment: NCI anticancer screen, SRB assay, 48 h; details: Homo sapiens
Summary of the method: as §1

[11] = tested on: LOX IMVI (melanoma); experiment: NCI anticancer screen, SRB assay, 48 h; details: Homo sapiens
Summary of the method: as §1

[12] = tested on: M14 (melanoma); experiment: NCI anticancer screen, SRB assay, 48 h; details: Homo sapiens
Summary of the method: as §1

[13] = tested on: MDA-MB-231/ATCC (breast); experiment: NCI anticancer screen, SRB assay, 48 h; details: Homo sapiens
Summary of the method: as §1

[14] = tested on: NCI-H23 (non-small cell lung); experiment: NCI anticancer screen, SRB assay, 48 h; details: Homo sapiens
Summary of the method: as §1

[15] = tested on: NCI-H460 (non-small cell lung); experiment: NCI anticancer screen, SRB assay, 48 h; details: Homo sapiens
Summary of the method: as §1

[16] = tested on: OVCAR-3 (ovarian); experiment: NCI anticancer screen, SRB assay, 48 h; details: Homo sapiens
Summary of the method: as §1

[17] = tested on: PC-3 (prostate); experiment: NCI anticancer screen, SRB assay, 48 h; details: Homo sapiens
Summary of the method: as §1

[18] = tested on: SF-295 (CNS); experiment: NCI anticancer screen, SRB assay, 48 h; details: Homo sapiens
Summary of the method: as §1

[19] = tested on: SF-539 (CNS); experiment: NCI anticancer screen, SRB assay, 48 h; details: Homo sapiens
Summary of the method: as §1

[20] = tested on: SK-MEL-2 (melanoma); experiment: NCI anticancer screen, SRB assay, 48 h; details: Homo sapiens
Summary of the method: as §1

[21] = tested on: SK-MEL-28 (melanoma); experiment: NCI anticancer screen, SRB assay, 48 h; details: Homo sapiens
Summary of the method: as §1

[22] = tested on: SN12C (renal); experiment: NCI anticancer screen, SRB assay, 48 h; details: Homo sapiens, SN12C
Summary of the method: as §1

[23] = tested on: SNB-75 (CNS); experiment: NCI anticancer screen, SRB assay, 48 h; details: Homo sapiens
Summary of the method: as §1

[24] = tested on: TD-47D (breast); experiment: NCI anticancer screen, SRB assay, 48 h; details: Homo sapiens
Summary of the method: as §1

[25] = tested on: Breast cancer cell lines; experiment: NCI anticancer screen, SRB assay, panel summary; details: Homo sapiens
Summary of the method: as §1

[26] = tested on: CNS cancer cell lines; experiment: NCI anticancer screen, SRB assay, panel summary; details: for GI50: Homo sapiens
Summary of the method: as §1

[27] = tested on: Colon cancer cell lines; experiment: NCI anticancer screen, SRB assay, panel summary; details: for GI50: Homo sapiens
Summary of the method: as §1

[28] = tested on: Leukemia cancer cell lines; experiment: NCI anticancer screen, SRB assay, panel summary; details: Homo sapiens
Summary of the method: as §1

[29] = tested on: Melanoma cancer cell lines; experiment: NCI anticancer screen, SRB assay, panel summary; details: for GI50: Homo sapiens
Summary of the method: as §1

[30] = tested on: Non-small cell lung cancer cell lines; experiment: NCI anticancer screen, SRB assay, panel summary; details: Homo sapiens
Summary of the method: as §1

[31] = tested on: Ovarian cancer cell lines; experiment: NCI anticancer screen, SRB assay, panel summary; details: Homo sapiens
Summary of the method: as §1

[32] = tested on: Prostate cancer cell lines; experiment: NCI anticancer screen, SRB assay, panel summary
Summary of the method: as §1

[33] = tested on: Renal cancer cell lines; experiment: NCI anticancer screen, SRB assay, panel summary; details: Homo sapiens
Summary of the method: as §1

[34] = 48 h exposure, SRB, read-out: GI50
[35] = read-out: pGI50 (-log of molar concentration causing 50% inhibition of net cell growth) (converted)

With `COc1cc(/C=C/C(=O)c2cccc(-n3cc(-c4ccc(Cl)cc4)[nH]c3=O)c2)ccc1O` [3f, 4-(4-chlorophenyl)-1-3-[(E)-3-(4-hydroxy-3-methoxyphenyl)-2-propenoyl]phenyl-2,3-dihydro-1H-2-imidazolone] the GI50 [1, 34] was 2820 nM, the GI50 [1, 35] was 2820 nM and the GI50 [2, 34] was 6780 nM. For the same compound, the GI50 [2, 35] was 6760 nM, the GI50 [3, 34] was 2190 nM and the GI50 [3, 35] was 2190 nM. It also gave a GI50 [4, 34] of 2520 nM, a GI50 [4, 35] of 2510 nM and a GI50 ([5]; COLO205, read-out: pGI50 (-log of molar concentration causing 50% inhibition of net cell growth) (converted)) of 3390 nM. It also gave a GI50 [5, 34] of 3400 nM, a GI50 [6, 34] of 1850 nM and a GI50 [6, 35] of 1860 nM. It also gave a GI50 [7, 34] of 1260 nM, a GI50 [7, 35] of 1260 nM and a GI50 [8, 34] of 4670 nM. It also gave a GI50 [8, 35] of 4680 nM, a GI50 ([9]; HT-29, 48 h exposure, SRB, read-out: GI50) of 2970 nM and a GI50 ([9]; HT-29, read-out: pGI50 (-log of molar concentration causing 50% inhibition of net cell growth) (converted)) of 2950 nM. It also gave a GI50 [10, 34] of 1480 nM, a GI50 [10, 35] of 1480 nM and a GI50 [11, 34] of 1630 nM. It also gave a GI50 [11, 35] of 1620 nM, a GI50 [12, 34] of 2860 nM and a GI50 [12, 35] of 2880 nM. The GI50 [13, 34] was 3870 nM, the GI50 [13, 35] was 3890 nM and the GI50 [14, 34] was 3180 nM. The GI50 [14, 35] was 3160 nM, the GI50 [15, 34] was 3900 nM and the GI50 [15, 35] was 3890 nM. It also gave a GI50 [16, 34] of 1560 nM, a GI50 [16, 35] of 1550 nM and a GI50 ([17]; PC-3, read-out: pGI50 (-log of molar concentration causing 50% inhibition of net cell growth) (converted)) of 1950 nM. It also gave a GI50 ([17]; one prostate cancer cell line (PC-3), exposure at least 48 hrs, read-out: GI50) of 1950 nM, a GI50 [18, 34] of 10500 nM and a GI50 [18, 35] of 10500 nM. For the same compound, the GI50 [19, 34] was 1780 nM, the GI50 [19, 35] was 1780 nM and the GI50 [20, 34] was 3660 nM. For the same compound, the GI50 [20, 35] was 3630 nM, the GI50 [21, 34] was 2060 nM and the GI50 [21, 35] was 2040 nM. For the same compound, the GI50 ([22]; SN 12C, read-out: pGI50 (-log of molar concentration causing 50% inhibition of net cell growth) (converted)) was 2880 nM, the GI50 [22, 34] was 2870 nM and the GI50 [23, 34] was 2750 nM. It also gave a GI50 [23, 35] of 2750 nM, a GI50 [24, 34] of 3090 nM and a GI50 [24, 35] of 3090 nM. For the same compound, the GI50 ([25]; Breast panel, log of concentration in mol/L causing 50% inhibition of net cell growth, read-out: mean graph midpoint (MG_MID) of Log10 GI50 (converted)) was 3240 nM, the LC50 ([25]; Breast panel, log of concentration leading to 50% net cell death, read-out: mean graph midpoint (MG_MID) of Log10 LC50 (converted)) was 95500 nM and the GI50 ([25]; five breast cancer cell lines, exposure at least 48 hrs, read-out: GI50, range over the panel) was 2300 to 4670 nM. For the same compound, the “mean graph midpoint (MG_MID) of Log10 LC50” value ([26]; CNS panel, log of concentration leading to 50% net cell death) was 4.29, the GI50 ([26]; CNS panel, log of concentration in mol/L causing 50% inhibition of net cell growth, read-out: mean graph midpoint (MG_MID) of Log10 GI50 (converted)) was 3160 nM and the GI50 ([26]; six CNS cancer cell lines, exposure at least 48 hrs, read-out: GI50, range over the panel) was 1780 to 10500 nM. For the same compound, the “mean graph midpoint (MG_MID) of Log10 LC50” value ([27]; Colon panel, log of concentration leading to 50% net cell death) was 4.53, the GI50 ([27]; Colon panel, log of concentration in mol/L causing 50% inhibition of net cell growth, read-out: mean graph midpoint (MG_MID) of Log10 GI50 (converted)) was 2040 nM and the GI50 ([27]; seven colon cancer cell lines, exposure at least 48 hrs, read-out: GI50, range over the panel) was 1460 to 3400 nM. It also gave a GI50 ([28]; Leukemia panel, log of concentration in mol/L causing 50% inhibition of net cell growth, read-out: mean graph midpoint (MG_MID) of Log10 GI50 (converted)) of 1380 nM, an LC50 ([28]; Leukemia panel, log of concentration leading to 50% net cell death, read-out: mean graph midpoint (MG_MID) of Log10 LC50 (converted)) of 55000 nM and a GI50 ([28]; two leukemia cancer cell lines (RPMI-8226 and K-562), exposure at least 48 hrs, read-out: GI50, range over the panel) of 1330 to 1420 nM. The GI50 ([29]; Melanoma panel, log of concentration in mol/L causing 50% inhibition of net cell growth, read-out: mean graph midpoint (MG_MID) of Log10 GI50 (converted)) was 2820 nM, the GI50 ([29]; nine melanoma cancer cell lines, exposure at least 48 hrs, read-out: GI50, range over the panel) was 1630 to 8690 nM and the “mean graph midpoint (MG_MID) of Log10 LC50” value ([29]; Melanoma panel, log of concentration leading to 50% net cell death) was 4.32. The GI50 ([30]; Non-small cell lung panel, log of concentration in mol/L causing 50% inhibition of net cell growth, read-out: mean graph midpoint (MG_MID) of Log10 GI50 (converted)) was 3550 nM, the LC50 ([30]; Non-small cell lung panel, log of concentration leading to 50% net cell death, read-out: mean graph midpoint (MG_MID) of Log10 LC50 (converted)) was 85100 nM and the GI50 ([30]; nine non-small cell lung cancer cell lines, exposure at least 48 hrs, read-out: GI50, range over the panel) was 1260 to 9610 nM. For the same compound, the GI50 ([31]; Ovarian panel, log of concentration in mol/L causing 50% inhibition of net cell growth, read-out: mean graph midpoint (MG_MID) of Log10 GI50 (converted)) was 2750 nM, the LC50 ([31]; Ovarian panel, log of concentration leading to 50% net cell death, read-out: mean graph midpoint (MG_MID) of Log10 LC50 (converted)) was 43700 nM and the GI50 ([31]; six ovarian cancer cell lines, exposure at least 48 hrs, read-out: GI50, range over the panel) was 1560 to 4640 nM. For the same compound, the GI50 ([32]; Homo sapiens, log of concentration in mol/L causing 50% inhibition of net cell growth, read-out: mean graph midpoint (MG_MID) of Log10 GI50 (converted)) was 1950 nM, the LC50 ([32]; Homo sapiens, log of concentration leading to 50% net cell death, read-out: mean graph midpoint (MG_MID) of Log10 LC50 (converted)) was 66100 nM and the “mean graph midpoint (MG_MID) of Log10 TGI” value ([32]; log of concentration resulting in total inhibition of net cell growth) was 5.20. It also gave a GI50 ([33]; Renal panel, log of concentration in mol/L causing 50% inhibition of net cell growth, read-out: mean graph midpoint (MG_MID) of Log10 GI50 (converted)) of 2950 nM, an LC50 ([33]; Renal panel, log of concentration leading to 50% net cell death, read-out: mean graph midpoint (MG_MID) of Log10 LC50 (converted)) of 63100 nM and a GI50 ([33]; eight renal cancer cell lines, exposure at least 48 hrs, read-out: GI50, range over the panel) of 1670 to 6400 nM.
